From patent US20100120763A1, “IMIDAZO[5,1-C][1,2,4]BENZOTRIAZINE DERIVATIVES AS INHIBITORS OF PHOSPHODIESTERASES” (priority 2008, published 2010)

Legend:
PDE10A = target: T1, PDE10A (Homo sapiens, UniProt Q9Y233); experiment: Inhibition of recombinant PDE10A (baculovirus/SF21 system), [3H]-cAMP SPA; format: biochemical; conditions: recombinant PDE10A1, cytosolic; 0.1 μM [3H]-cAMP, 37° C., 30 minutes; read-out: PDE10A IC50
T1 construct: made in house; host or cells: SF21 insect cells (baculovirus)
T1 sequence (Q9Y233 1-779 isoform Q9Y233-1): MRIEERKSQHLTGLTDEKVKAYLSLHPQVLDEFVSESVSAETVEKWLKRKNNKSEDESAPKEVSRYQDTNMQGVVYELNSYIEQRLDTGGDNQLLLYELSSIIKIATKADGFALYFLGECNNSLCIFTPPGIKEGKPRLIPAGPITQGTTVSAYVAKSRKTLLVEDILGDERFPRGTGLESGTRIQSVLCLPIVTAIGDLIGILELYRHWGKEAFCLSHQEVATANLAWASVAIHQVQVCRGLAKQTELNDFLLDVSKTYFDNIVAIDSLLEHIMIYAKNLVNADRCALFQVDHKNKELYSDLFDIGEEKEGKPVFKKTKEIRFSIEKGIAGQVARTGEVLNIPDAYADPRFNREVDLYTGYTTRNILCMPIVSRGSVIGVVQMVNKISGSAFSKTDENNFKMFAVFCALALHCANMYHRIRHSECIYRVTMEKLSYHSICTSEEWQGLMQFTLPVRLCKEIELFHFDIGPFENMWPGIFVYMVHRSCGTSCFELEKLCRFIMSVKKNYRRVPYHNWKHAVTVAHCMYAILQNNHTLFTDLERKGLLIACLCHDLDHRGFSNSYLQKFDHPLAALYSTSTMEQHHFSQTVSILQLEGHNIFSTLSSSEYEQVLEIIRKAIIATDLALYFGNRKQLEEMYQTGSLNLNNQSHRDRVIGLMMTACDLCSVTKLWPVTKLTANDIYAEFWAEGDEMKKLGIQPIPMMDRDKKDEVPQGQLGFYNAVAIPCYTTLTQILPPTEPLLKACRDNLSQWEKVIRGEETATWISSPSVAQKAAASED
Experimental: Inhibition of Recombinant PDE10A (Baculovirus/SF21 System)
The gene was than inserted into a baculovirus vector, ligated with the baculovirus DNA. The enzyme-protein was expressed in SF21-cells. The enzyme was isolated from these cells by harvesting the cells by an centrifugation at 500 g to collect the cells.
The cells were resuspended in 50 mM Tris-HCl/1 mM EDTA/250 mM Sucrose buffer, pH=7.4 (Sigma, Deisenhofen, Germany; Merck, Darmstadt, Germany) and lysed by sonification of the cells (three times for 15 seconds, Labsonic U, Fa. Braun, Degersheim, Switzerland, level “high”). The cytosolic PDE10A was obtained by a centrifugation at 48,000 g for 1 h in the supernatant and stored at −70° C.
PDE activity was determined in a one step procedure in microtiter plates. The reaction mixture of 100 μl contained 50 mM Tris-HCl/5 mM MgCl2 buffer (pH=7.4, Sigma, Deisenhofen, Germany; Merck, Darmstadt, Germany) 0.1 μM [3H]-cAMP (Amersham, Buckinghamshire, UK) and the enzyme. Non-specific enzyme activity was determined without the enzyme. The reaction was initiated by addition of the substrate solution and was carried out at 37° C. for 30 minutes. Enzymatic activity then was stopped by addition of 25 μl Ysi-SPA-beads (Amersham-Pharmacia). One hour later the mixture was measured in a liquid scintillation counter for microtiter plates (Microbeta Trilux). The Biomek 2000 (Beckman) was used routinely for pipetting of the incubation mixture. […] For determination of IC50 values the Hill-plot, 2-parameter-model, was used.

PDE2A = target: T2, PDE2A (Homo sapiens, UniProt O00408); experiment: Inhibition of recombinant PDE2A (expressed in baculovirus/SF21-cells), [3H]-cAMP SPA; format: biochemical
T2 construct: made in house; host or cells: SF21 insect cells (baculovirus)
T2 sequence (O00408 whole entry): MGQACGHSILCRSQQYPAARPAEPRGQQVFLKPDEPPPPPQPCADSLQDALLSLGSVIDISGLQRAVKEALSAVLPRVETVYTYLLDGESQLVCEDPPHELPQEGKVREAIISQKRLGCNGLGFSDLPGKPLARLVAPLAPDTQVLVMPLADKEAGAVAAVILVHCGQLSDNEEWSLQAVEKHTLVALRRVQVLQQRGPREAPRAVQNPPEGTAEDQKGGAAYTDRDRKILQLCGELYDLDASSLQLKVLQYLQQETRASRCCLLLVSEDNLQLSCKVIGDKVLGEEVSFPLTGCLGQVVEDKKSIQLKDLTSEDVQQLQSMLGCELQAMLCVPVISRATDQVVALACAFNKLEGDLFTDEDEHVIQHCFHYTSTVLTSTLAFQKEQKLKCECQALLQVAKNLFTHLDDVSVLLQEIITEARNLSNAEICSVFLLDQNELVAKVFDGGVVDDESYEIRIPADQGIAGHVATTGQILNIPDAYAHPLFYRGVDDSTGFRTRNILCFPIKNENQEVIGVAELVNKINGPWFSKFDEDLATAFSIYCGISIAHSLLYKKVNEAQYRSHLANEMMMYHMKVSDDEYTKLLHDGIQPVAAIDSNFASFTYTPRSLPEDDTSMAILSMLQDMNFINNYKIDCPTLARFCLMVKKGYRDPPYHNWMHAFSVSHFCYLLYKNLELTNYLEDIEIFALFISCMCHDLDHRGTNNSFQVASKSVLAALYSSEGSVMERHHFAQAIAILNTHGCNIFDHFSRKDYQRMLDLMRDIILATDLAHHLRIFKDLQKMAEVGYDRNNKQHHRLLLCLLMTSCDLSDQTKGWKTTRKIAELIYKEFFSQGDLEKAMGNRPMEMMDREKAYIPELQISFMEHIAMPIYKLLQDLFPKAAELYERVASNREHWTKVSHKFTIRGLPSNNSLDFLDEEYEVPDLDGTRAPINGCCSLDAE
Experimental: Inhibition of Recombinant PDE2A (Expressed in Baculovirus/SF21-Cells)
PDE2A (NM002599) was cloned and the gene was inserted in the baculovirus and the enzyme-protein expressed in SF21-cells. The enzyme was isolated from these cells by harvesting the cells by an centrifugation at 200 g to collect the cells. The cells were resuspended in 50 mM Tris-HCl/5 mM MgCl2 buffer (pH=7.4) (Sigma, Deisenhofen, Germany; Merck, Darmstadt, Germany) and lysed by a sonication of the cells (three times for 15 seconds, Labsonic U, Fa. Braun, Degersheim, Switzerland, level “high”). The membrane fraction of PDE2A was obtained by a centrifugation at 48 000 g for 1 h, resuspended in buffer and stored at −70° C.
PDE2A activity was determined in a one step procedure in microtiterplates. The reaction mixture of 100 μl contained 50 mM Tris-HCl/5 mM MgCl2 buffer (pH=7.4) (Sigma, Deisenhofen, Germany; Merck, Darmstadt, Germany), 0.5 μM [3H]-cAMP (Amersham, Buckinghamshire, UK), 1000 nM cGMP and the enzyme. Non-specific enzyme activity was tested in the absence of cGMP. The reaction was initiated by addition of the substrate solution and was carried out at 37° C. for 30 minutes. Enzymatic activity then was stopped by addition of 25 μl SPA-beads (Amersham-Pharmacia). One hour later the mixture was measured in a liquid scintillation counter for microtiterplates (Microbeta Trilux). For pipetting of the incubation mixture the robot Biomek (Fa. Beckman) was routinely used.
For determination of IC50 values the Hill-plot, 2-parameter-model, was used.

Structure (SMILES)	IC50 (PDE10A)	IC50 (PDE2A)
CCOc1ccc(Cl)c(-c2nc(C)c3nnc4c(OC)cc(F)cc4n23)c1 [Example 108, 1-(2-chloro-5-ethoxyphenyl)-8-fluoro-6-methoxy-3-methylimidazo[5,1-c][1,2,4]benzotriazine]	8.37 nM	55 nM
COc1cc(F)cc2c1nnc1c(C)nc(-c3cccnc3)n12 [Example 109, 8-fluoro-6-methoxy-3-methyl-1-pyridin-3-ylimidazo[5,1-c][1,2,4]benzotriazine]	102 nM	> 5000 nM
COc1cc(F)cc2c1nnc1c(C)nc(-c3ccc(F)cc3C)n12 [Example 110, 8-fluoro-1-(4-fluoro-2-methylphenyl)-6-methoxy-3-methylimidazo[5,1-c][1,2,4]benzotriazine]	8.52 nM	609 nM
COc1cc(F)cc2c1nnc1c(C)nc(-c3ccc(F)cc3Cl)n12 [Example 111, 1-(2-chloro-4-fluorophenyl)-8-fluoro-6-methoxy-3-methylimidazo[5,1-c][1,2,4]benzotriazine]	3.01 nM	324 nM
COc1cc(F)cc2c1nnc1c(C)nc(-c3ccc(C)cc3Cl)n12 [Example 112, 1-(2-chloro-4-methylphenyl)-8-fluoro-6-methoxy-3-methylimidazo[5,1-c][1,2,4]benzotriazine]	1.88 nM	636 nM
COc1cc(F)cc2c1nnc1c(C)nc(-c3ccc(C)cc3F)n12 [Example 114, 8-fluoro-1-(2-fluoro-4-methylphenyl)-6-methoxy-3-methylimidazo[5,1-c][1,2,4]benzotriazine]	17.1 nM	1060 nM
COc1cc(F)cc2c1nnc1c(C)nc(-c3c(C)noc3C)n12 [Example 115, 1-(3,5-dimethylisoxazol-4-yl)-8-fluoro-6-methoxy-3-methylimidazo[5,1-c][1,2,4]benzotriazine]	67 nM	> 10000 nM
COc1cc(F)cc2c1nnc1c(C)nc(-c3c(C)nn(C)c3C)n12 [Example 116, 8-fluoro-6-methoxy-3-methyl-1-(1,3,5-trimethyl-1H-pyrazol-4-yl)imidazo[5,1-c][1,2,4]benzotriazine]	13.1 nM	1500 nM
COc1cc(F)cc2c1nnc1c(C)nc(-c3cccc(F)c3C)n12 [Example 117, 8-fluoro-1-(3-fluoro-2-methylphenyl)-6-methoxy-3-methylimidazo[5,1-c][1,2,4]benzotriazine]	3.55 nM	1150 nM
COc1cc(F)cc2c1nnc1c(C)nc(-c3sccc3C)n12 [Example 119, 8-fluoro-6-methoxy-3-methyl-1-(3-methylthiophen-2-yl)imidazo[5,1-c][1,2,4]benzotriazine]	1.64 nM	269 nM
COc1cc(F)cc2c1nnc1c(C)nc(-c3ccc(F)nc3C)n12 [Example 120, 8-fluoro-1-(6-fluoro-2-methylpyridin-3-yl)-6-methoxy-3-methylimidazo[5,1-c][1,2,4]benzotriazine]	53.6 nM	> 10000 nM
COc1cc(F)cc2c1nnc1c(C)nc(-c3cnc(F)c(C)c3)n12 [Example 121, 8-fluoro-1-(6-fluoro-5-methylpyridin-3-yl)-6-methoxy-3-methylimidazo[5,1-c][1,2,4]benzotriazine]	133 nM	> 1000 nM
COc1cncc(-c2nc(C)c3nnc4c(OC)cc(F)cc4n23)c1 [Example 122, 8-fluoro-6-methoxy-1-(5-methoxypyridin-3-yl)-3-methylimidazo[5,1-c][1,2,4]benzotriazine]	39.3 nM	1620 nM
COc1cc(F)cc2c1nnc1c(C)nc(-c3cnccc3C)n12 [Example 123, 8-fluoro-6-methoxy-3-methyl-1-(4-methylpyridin-3-yl)imidazo[5,1-c][1,2,4]benzotriazine]	25.4 nM	2380 nM
COc1cc(F)cc2c1nnc1c(C)nc(-c3c(C)n[nH]c3C)n12 [Example 124, 1-(3,5-dimethyl-1H-pyrazol-4-yl)-8-fluoro-6-methoxy-3-methylimidazo[5,1-c][1,2,4]benzotriazine]	13 nM	1430 nM
COc1cc(F)cc2c1nnc1c(C)nc(-c3cc(OC(F)(F)F)ccc3Cl)n12 [Example 125, 1-[2-chloro-5-(trifluoromethoxy)phenyl]-8-fluoro-6-methoxy-3-methylimidazo[5,1-c][1,2,4]benzotriazine]	12.1 nM	117 nM
COc1ccc(Cl)c(-c2nc(C)c3nnc4c(OC)cc(F)cc4n23)c1 [Example 126, 1-(2-chloro-5-methoxyphenyl)-8-fluoro-6-methoxy-3-methylimidazo[5,1-c][1,2,4]benzotriazine]	2.45 nM	108 nM
COc1cc(F)cc2c1nnc1c(C)nc(-c3sc(C)nc3C)n12 [Example 127, 1-(2,4-dimethyl-1,3-thiazol-5-yl)-8-fluoro-6-methoxy-3-methylimidazo[5,1-c][1,2,4]benzotriazine]	11.7 nM	3420 nM
COc1cc(F)cc2c1nnc1c(C)nc(-c3cc(C(N)=O)ccc3F)n12 [Example 128, 4-fluoro-3-(8-fluoro-6-methoxy-3-methylimidazo[5,1-c][1,2,4]benzotriazin-1-yl)benzamide]	6.31 nM	654 nM
COc1cc(F)cc2c1nnc1c(C)nc(-c3ccncc3)n12 [Example 129, 8-fluoro-6-methoxy-3-methyl-1-pyridin-4-ylimidazo[5,1-c][1,2,4]benzotriazine]	61.6 nM	4950 nM
Cc1nc(-c2cc(Cl)ccc2Cl)n2c1nnc1c(Cl)cc(C(F)(F)F)cc12 [Example 133, 6-chloro-1-(2,5-dichlorophenyl)-3-methyl-8-(trifluoromethyl)imidazo[5,1-c][1,2,4]benzotriazine]	9.69 nM	403 nM
COc1cc(C(F)(F)F)cc2c1nnc1c(C)nc(-c3ccncc3C)n12 [Example 134, 6-methoxy-3-methyl-1-(3-methylpyridin-4-yl)-8-(trifluoromethyl)benzo[e]imidazo[5,1-c][1,2,4]triazine]	1.48 nM	346 nM
COc1cc(C(F)(F)F)cc2c1nnc1c(C)nc(-c3ccoc3)n12 [Example 143, 1-(Furan-3-yl)-6-methoxy-3-methyl-8-(trifluoromethyl)benzo[e]imidazo[5,1-c][1,2,4]triazine]	57 nM	> 1000 nM
COc1cc(O)cc2c1nnc1c(C)nc(-c3cnccc3C)n12 [Example 149, 6-methoxy-3-methyl-1-(4-methylpyridin-3-yl)benzo[e]imidazo[5,1-c][1,2,4]triazin-8-ol]	22 nM	451 nM
COc1cc(OC(F)F)cc2c1nnc1c(C)nc(-c3cnccc3C)n12 [Example 150, 8-(difluoromethoxy)-6-methoxy-3-methyl-1-(4-methylpyridin-3-yl)benzo[e]imidazo[5,1-c][1,2,4]triazine]	7 nM	944 nM
COc1cc(OCc2ccccc2)cc2c1nnc1c(C)nc(-c3ccncc3C)n12 [Example 151, 8-(benzyloxy)-6-methoxy-3-methyl-1-(3-methylpyridin-4-yl)imidazo[5,1-c][1,2,4]benzotriazine]	0.7 nM	80.6 nM
COc1cc(O)cc2c1nnc1c(C)nc(-c3ccncc3C)n12 [Example 152, 6-methoxy-3-methyl-1-(3-methylpyridin-4-yl)benzo[e]imidazo[5,1-c][1,2,4]triazin-8-ol]	3.05 nM	105 nM
COc1cc(OCc2ccccc2)cc2c1nnc1c(C)nc(-c3cccnc3C)n12 [Example 154, 8-(benzyloxy)-6-methoxy-3-methyl-1-(2-methylpyridin-3-yl)imidazo[5,1-c][1,2,4]benzotriazine]	0.67 nM	73.9 nM
